The target in one experiment is T1, Ret wt (Homo sapiens, UniProt P07949).
T1 construct: purchased Invitrogen PV3082
Nature of the experiment: HTRF kinase activity test, RET wild type. The format is biochemical. The note with it: Table 3; read-out: RET Enzyme (wild type) IC50. The protocol: This test combined peptide substrates and a single proprietary monoclonal antibody with HTRF technology, which was a highly sensitive and stable technology for detecting molecular interactions of proteins. The enzyme phosphorylates the substrate, then the Eu-labeled antibody binds to the phosphorylated substrate, and streptavidin-XL665 binds to all substrates. The TR-FRET signal was generated by the HTRF principle. […] Based on this, the inhibitory effect was evaluated.
(§1) The other compounds were diluted 3-fold gradiently with DMSO from the 10 mM stock solution to a total of 10 concentrations respectively.
(§2) Adding 4 volumes of distilled water to 1 volume of enzyme buffer 5×; 5 mM MgCl2; 1 mM DTT.
(§3) b) centrifuging the compound plate for 1 minute at 1000 g.
(§4) c) sealing the test board.
(§5) f) adding 4 μl of 1× kinase buffer to each well of the test plate, centrifuging the sample plate at 1000 g for 30 seconds, and placing it at room temperature for 10 minutes.
(§6) g) preparing a solution of 5× TK-substrate-biotin ([…]) in kinase buffer and 5×ATP (50 μM) in kinase buffer respectively.
(§7) h) starting the reaction by adding 2 μl STK-substrate-biotin and 2 μl ATP (prepared in the step g).
(§8) i) centrifuging the sample plate for 30 seconds at 1000 g. Sealing the test board and placing it at room temperature for 30 minutes.
(§9) ) centrifuging at 1000 g for 30 seconds and placing it at room temperature for 1 hour.
(§10) The inhibition rate % was calculated as follows:
(§11) Inhibition rate %=[1−(fluorescence signal value of test compound−fluorescence signal value of positive control)/(average ratio of negative control−average ratio of positive control)]*100%
(§12) Ratio: generated from the measured fluorescence signal value
(§13) The average ratio of the positive control is the average ratio of the positive control (200 nM AT13148) in the sample plate;
(§14) The average ratio of negative controls is the average ratio of negative controls (0.1% DMSO) in the sample plate.
(§15) GraphPad 6.0 was used to fit the logarithm of the % inhibition rate and the compound concentration into a nonlinear regression (dose response−variable slope) to calculate the IC50 value.

The target of the next experiment is T2, RET (V804M) (Homo sapiens, UniProt P07949, V804M).
T2 construct: purchased Signalchem R02-12GG
T2 sequence (P07949 29-1114 V804M): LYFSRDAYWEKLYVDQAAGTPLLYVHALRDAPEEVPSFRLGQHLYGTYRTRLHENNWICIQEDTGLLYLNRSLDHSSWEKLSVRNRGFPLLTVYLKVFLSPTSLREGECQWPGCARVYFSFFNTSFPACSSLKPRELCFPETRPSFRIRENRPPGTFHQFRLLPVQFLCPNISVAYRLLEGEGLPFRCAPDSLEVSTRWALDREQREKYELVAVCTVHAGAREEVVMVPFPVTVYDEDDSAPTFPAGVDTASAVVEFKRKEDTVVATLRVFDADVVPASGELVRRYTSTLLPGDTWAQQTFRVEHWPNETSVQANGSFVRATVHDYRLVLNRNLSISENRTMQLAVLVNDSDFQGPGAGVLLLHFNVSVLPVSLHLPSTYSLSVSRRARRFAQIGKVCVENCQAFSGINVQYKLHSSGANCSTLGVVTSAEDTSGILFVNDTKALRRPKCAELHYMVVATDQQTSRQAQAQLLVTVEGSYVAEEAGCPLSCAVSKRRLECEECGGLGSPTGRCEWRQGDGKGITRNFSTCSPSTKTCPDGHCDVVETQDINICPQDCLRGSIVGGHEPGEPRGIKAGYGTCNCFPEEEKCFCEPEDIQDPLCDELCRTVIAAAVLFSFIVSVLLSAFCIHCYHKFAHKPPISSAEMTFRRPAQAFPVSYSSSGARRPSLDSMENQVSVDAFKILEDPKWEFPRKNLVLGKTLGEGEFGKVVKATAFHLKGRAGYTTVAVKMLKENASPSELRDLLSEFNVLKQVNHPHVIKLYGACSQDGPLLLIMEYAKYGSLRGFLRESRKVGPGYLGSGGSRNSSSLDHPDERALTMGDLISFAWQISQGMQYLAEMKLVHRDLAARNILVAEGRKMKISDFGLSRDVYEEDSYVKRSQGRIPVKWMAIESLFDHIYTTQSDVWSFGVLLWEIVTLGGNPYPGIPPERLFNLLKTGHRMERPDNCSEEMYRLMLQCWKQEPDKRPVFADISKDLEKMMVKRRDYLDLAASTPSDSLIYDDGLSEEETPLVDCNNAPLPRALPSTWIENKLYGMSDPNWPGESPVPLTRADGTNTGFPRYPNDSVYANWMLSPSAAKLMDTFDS
Nature of the experiment: HTRF kinase activity test, RET V804M. The format is biochemical. The note with it: Table 3; read-out: RET Enzyme (V804M) IC50. The protocol:
This test combined peptide substrates and a single proprietary monoclonal antibody with HTRF technology, which was a highly sensitive and stable technology for detecting molecular interactions of proteins. The enzyme phosphorylates the substrate, then the Eu-labeled antibody binds to the phosphorylated substrate, and streptavidin-XL665 binds to all substrates. The TR-FRET signal was generated by the HTRF principle. Once the inhibitor (test compound) was added, a weaker TR-FRET signal is obtained. Based on this, the inhibitory effect was evaluated.
as §1, §2
a) Transferring 10 nl of the compound dilution (prepared in 5.2) to each well of the test plate (784075, Greiner);
as §3, §4
d) preparing 5×Ret wt (0.2 ng/μl) and 5×Ret V804L (0.5 ng/μl)/5×Ret V804M (0.5 ng/μl) in 1× kinase buffer respectively.
e) adding 2 μl of 5×Ret wt or 2 μl of Ret V804L/RET V804M to a 384-well test plate (784075, Greiner).
as §5, §6, §7, §8
j) preparing 4×Sa-XL 665 (250 nM) in HTRF detection buffer.
k) adding 5 μl of Sa-XL 665 and 5 μl of TK-antibody-Cryptate (prepared in the step i) to each well of the test plate.
as §9
m) reading the fluorescence signal values at 615 nm (Cryptate) and 665 nm (XL665) on the Envision 2104 plate reader.
Calculating the ratio of each hole (665 nm/615 nm).
as §10, §11, §12, §13, §14, §15

For the next experiment, the system named is TT Cell. Kind of experiment: Cell inhibitory activity test (CCK8). The format is cell-based. The note with it: Homo sapiens, TT, Table 3, 72 hours incubation. The protocol: Cell Inhibitory Activity Test
1. preparing 90 μl of cell suspension in a 96-well plate with 4000 cells/well. Pre-incubating the culture plate in an incubator for 24 hours (37° C., 5% CO2).
2. adding 10 μl of test compounds of different concentrations to each well of cells, and each compound has multiple wells.
3. incubating the culture plate in the incubator for 72 hours.
4. adding 10 μl of CCK8 solution to each well (be careful not to generate bubbles in the well, otherwise they would affect the reading of the OD value).
5. incubating the culture plate in the incubator for 1-2 hours.
6. measuring the absorbance at 450 nm with a microplate reader.
7. according to the compound concentration and absorbance value, GraphpadPrism software was used to calculate the IC50 of each compound.

Experiment [1] concerns RET wild-type, mutant and/or fusion-type. Nature of the experiment: Overall statement on RET inhibitory activity (summary of Table 3). The note with it: statement in words summarising Table 3. An excerpt: As shown in the above table, the example compounds of the present disclosure have improved inhibitory activity against RET wild-type, mutant and/or fusion-type.

Structures are written as SMILES.

The record followed here is patent publication US20210379056A1, “SUBSTITUTED PYRAZOLE FUSED RING DERIVATIVE, PREPARATION METHOD THEREFOR, AND APPLICATION THEREOF” (Applied Pharmaceutical Science, Inc., priority 2018, published 2021).

T1 sequence (P07949 29-1114): as the sequence (P07949 29-1114 V804M) above, with M776V counted along it

With `COCCOc1cc(-c2ccc(N3CC4CC(C3)N4Cc3ccc(OC)nc3)nc2)c2c(C#N)c(N)nn2c1` [APS097, 2-amino-6-(2-methoxyethoxy)-4-(6-(6-((6-methoxypyridin-3-yl)methyl)-3,6-diazabicyclo[3.1.1]heptan-3-yl)pyridin-3-yl)pyrazolo[1,5-a]pyridine-3-carbonitrile], the results for the IC50 on Ret wt, at RET (V804M) and with TT Cell were < 1 nM, < 1 nM and 75.5 nM, respectively. In addition, the “inhibitory activity against RET wild-type, mutant and/or fusion-type” value (“inhibitory activity” for short) in experiment [1] is given as “excellent activity”.
As to `CCOc1cc(-c2cnc(N3CC4CC(C3)N4Cc3ccc(OC)nc3)cn2)c2c(C#N)c(N)nn2c1` [APS092, 2-amino-6-ethoxy-4-(5-(6-((6-methoxypyridin-3-yl)methyl)-3,6-diazabicyclo[3.1.1]heptane-3-yl)pyrazin-2-yl)pyrazolo[1,5-a]pyridine-3-carbonitrile], the IC50 was found to be 4.3 nM at Ret wt, 2.7 nM on RET (V804M) and 60 nM in the experiment with TT Cell. Moreover, in experiment [1], the “inhibitory activity” value is “excellent activity”.
Consider `COCCOc1cc(-c2ccc(N3CC4CC(C3)N4Cc3ccc(OC)nc3)nc2)c2c(C#N)c(NC(C)=O)nn2c1` [APS103], for which the IC50 on Ret wt is 261 nM; on RET (V804M) it was 155 nM.
`COc1ccc(CN2C3CC2CN(c2ccc(-c4cc(OCC(C)(C)O)cn5nc(F)c(C#N)c45)cn2)C3)cn1` [APS090]: the figures for the IC50 at Ret wt, on RET (V804M) and with TT Cell were 54 nM, 486 nM and 31.4 nM, respectively.
`COc1ccc(CN2C3CC2CN(c2cnc(-c4cc(OC[C@@H]5CN(C)CCO5)cn5nc(N)c(C#N)c45)cn2)C3)cn1` [APS107, 2-amino-4-(5-(6-((6-methoxypyridin-3-yl)methyl)-3,6-diazabicyclo[3.1.1]heptan-3-yl)pyrazin-2-yl)-6-(((S)-4-methylmorpholin-2-yl)methoxy)pyrazolo[1,5-a]pyridine-3-carbonitrile]: the results for the IC50 on Ret wt, on RET (V804M) and in the experiment on TT Cell were < 1 nM, < 1 nM and 16.3 nM, respectively. Further, the “inhibitory activity” value in experiment [1] is recorded as “excellent activity”.
On to `CCOc1cc(-c2ccc(N3CC4CC(C3)N4Cc3ccc(OC)nc3)nc2)c2c(C#N)c(F)nn2c1` [APS096], for which the IC50 was 122 nM at Ret wt and 186 nM at RET (V804M).
In the case of `COc1ccc(CN2C3CC2CN(c2ccc(-c4cc(OCCF)cn5nc(N)c(C#N)c45)cn2)C3)cn1` [APS119, 2-amino-6-(2-fluoroethoxy)-4-(6-(6-((6-methoxypyridin-3-yl)methyl)-3,6-diazabicyclo[3.1.1]heptan-3-yl)pyridin-3-yl)pyrazolo[1,5-a]pyridine-3-carbonitrile], the results for the IC50 at Ret wt, at RET (V804M) and in the experiment on TT Cell were < 1 nM, < 1 nM and 6.6 nM, respectively. Moreover, the “inhibitory activity” value in experiment [1] is recorded as “excellent activity”.
Consider `CCOc1cc(-c2ccc(N3CC4CC(C3)N4Cc3cnc(OC)c(Cl)c3)nc2)c2c(C#N)c(N)nn2c1` [APS105], for which the figures for the IC50 on Ret wt, at RET (V804M) and in the experiment on TT Cell were < 1 nM, < 1 nM and 28.1 nM, respectively. Besides, in experiment [1], the “inhibitory activity” value was “excellent activity”.
On to `COc1ccc(CN2C3CC2CN(c2ccc(-c4cc(OCC(C)(C)O)cn5nc(N)c(C(N)=O)c45)cn2)C3)cn1` [APS106], for which the IC50 at Ret wt amounted to 745 nM; on RET (V804M) it was 971 nM.
For `COc1ccc(CN2C3CC2CN(c2ccc(-c4cc(OCC(C)(C)O)cn5nc(OC)c(C#N)c45)cn2)C3)cn1` [APS091, 6-(2-hydroxy-2-methylpropoxy)-2-methoxy-4-(6-(6-((6-methoxypyridin-3-yl)methyl)-3,6-diazabicyclo[3.1.1]heptan-3-yl)pyridin-3-yl)pyrazolo[1,5-a]pyridine-3-carbonitrile], the IC50 at RET (V804M) worked out at 957 nM.
In the case of `COc1ccc(CN2C3CC2CN(c2ccc(-c4cc(OCC(F)F)cn5nc(N)c(C#N)c45)cn2)C3)cn1` [APS114, 2-amino-6-(2,2-difluoroethoxy)-4-(6-(6-((6-methoxypyridin-3-yl)methyl)-3,6-diazabicyclo[3.1.1]heptan-3-yl)pyridin-3-yl)pyrazolo[1,5-a]pyridine-3-carbonitrile], the IC50 on Ret wt is 2 nM; at RET (V804M), < 1 nM. Besides, the “inhibitory activity” value in experiment [1] is on record as “excellent activity”.
With `COc1ccc(CN2C3CC2CN(c2cnc(-c4cc(OC[C@@H]5CN(C)CCO5)cn5nc(F)c(C#N)c45)cn2)C3)cn1` [APS104, 2-fluoro-4-(5-(6-((6-methoxypyridin-3-yl)methyl)-3,6-diazabicyclo[3.1.1]heptan-3-yl)pyrazin-2-yl)-6-(((S)-4-methylmorpholin-2-yl)methoxy)pyrazolo[1,5-a]pyridine-3-carbonitrile], the results for the IC50 at Ret wt and on RET (V804M) were 6.9 nM and 14 nM, respectively. The “inhibitory activity” value in experiment [1] is on record as “excellent activity”.
Regarding `COCCOc1cc(-c2ccc(N3CC4CC(C3)N4Cc3ccc(OC)nc3)nc2)c2c(C#N)c(F)nn2c1` [APS098, 2-fluoro-6-(2-methoxyethoxy)-4-(6-(6-((6-methoxypyridin-3-yl)methyl)-3,6-diazabicyclo [3.1.1]heptan-3-yl)pyridin-3-yl)pyrazolo[1,5-a]pyridine-3-carbonitrile], the results for the IC50 on Ret wt and at RET (V804M) were 144 nM and 85.6 nM, respectively.
Taken in the same sequence, the figures for `COc1ccc(CN2C3CC2CN(c2ccc(-c4cc(OCC(C)(C)O)cn5nc(NC(C)=O)c(C#N)c45)cn2)C3)cn1` [APS093] were 2890 nM and 1550 nM.
For `COc1ccc(CN2C3CC2CN(c2ccc(-c4cc(OCC(C)(C)O)cn5nc(NCCO)c(C#N)c45)cn2)C3)cn1` [APS094, 6-(2-Hydroxy-2-methylpropoxy)-2-((2-2-hydroxyethyl)amino)-4-(6-(6-((6-methoxypyridine-3-yl)methyl)-3,6-diazabicyclo[3.1.1]heptan-3-yl)pyridin-3-yl)pyrazolo[1,5-a]pyridine-3-carbonitrile] the same measures were 942 nM and 493 nM.
Taken in the same sequence, the figures for `COc1ccc(CN2C3CC2CN(c2ccc(-c4cc(OC(F)F)cn5nc(N)c(C#N)c45)cn2)C3)cn1` [APS115, 2-amino-6-(difluoromethoxy)-4-(6-(6-((6-methoxypyridin-3-yl)methyl)-3,6-diazabicyclo[3.1.1]heptan-3-yl)pyridin-3-yl)pyrazolo[1,5-a]pyridine-3-carbonitrile] were 45.9 nM and 8.8 nM.
For `COc1cccc(CN2CCN(c3ccc(-c4cc(-c5cnn(C)c5)cn5nc(N)c(C#N)c45)cn3)CC2)c1` [APS026, 2-amino-4-(6-(4-(3-methoxybenzyl)piperazin-1-yl)pyridin-3-yl)-6-(1-methyl-1H-pyrazole-4-yl)pyrazolo[1,5-a]pyridine-3-carbonitrile], the values for the IC50 on Ret wt and with TT Cell were 1.4 nM and 18.1 nM, respectively. For the same molecule, the “inhibitory activity” value in experiment [1] is “excellent activity”.

What is called IC50 is the point on the concentration scale where inhibition reaches its midpoint.
